Measurements taken from patent publication US20120115724A1, “METHOD OF CONTROLLING UNDESIRED VEGETATION” (SYNGENTA CROP PROTECTION LLC, priority 2009, published 2012).

What was measured:
Type in all cases: in vivo
Setaria faberi (SETFA) [1] = test: Post-emergence biological efficacy (Example 14); conditions: Setaria faberi, 312 h; post-emergence, 1,000 g/ha, after 13 days; read-out: Percentage damage SETFA
Protocol: (§1) Seeds of Alopecurus myosuroides (ALOMY), Setaria faberi (SETFA), Echinochloa crus-galli (ECHCG), Solanum nigrum (SOLNI), Amaranthus retroflexus (AMARE) and Ipomea hederaceae (IPOHE) were sown in standard soil in pots. After cultivation for 8 days under controlled conditions in a glasshouse (at 24/16° C., day/night; 14 hours light; 65% humidity), the plants were sprayed with an aqueous spray solution derived from the formulation of the technical active ingredient in acetone/water (50:50) solution containing 0.5% Tween 20 (polyoxyethylene sorbitan monolaurate, CAS RN 9005-64-5) to give a final dose of 250 or 1000 g/ha of test compound. The test plants were then grown on under controlled conditions in a glasshouse (at 24/16° C., day/night; 14 hours light; 65% humidity) and watered twice daily. After 13 days the test was evaluated (100=total damage to plant; 0=no damage to plant).

[2] = system: Ipomea hederaceae (IPOHE); test: Post-emergence biological efficacy (Example 14); conditions: Ipomoea hederacea, 312 h; post-emergence, 1,000 g/ha, after 13 days; read-out: Percentage damage IPOHE
Protocol: as §1

[3] = system: Alopecurus myosuroides (ALOMY); test: Post-emergence biological efficacy (Example 14); conditions: Alopecurus myosuroides, 312 h; post-emergence, 1,000 g/ha, after 13 days; read-out: Percentage damage ALOMY
Protocol: as §1

Solanum nigrum (SOLNI) [4] = test: Post-emergence biological efficacy (Example 14); conditions: Solanum nigrum, 312 h; post-emergence, 1,000 g/ha, after 13 days; read-out: Percentage damage SOLNI
Protocol: as §1

[5] = system: Echinochloa crus-galli (ECHCG); test: Post-emergence biological efficacy (Example 14); conditions: Echinochloa crus-galli, 312 h; post-emergence, 1,000 g/ha, after 13 days; read-out: Percentage damage ECHCG
Protocol: as §1

[6] = system: Amaranthus retroflexus (AMARE); test: Post-emergence biological efficacy (Example 14); conditions: Amaranthus retroflexus, 312 h; post-emergence, 1,000 g/ha, after 13 days; read-out: Percentage damage AMARE
Protocol: as §1

[7] = system: EPHHL Euphorbia heterophylla; test: Post-emergence crop and weed test (Example 15); conditions: 360 h, after 15 days, read-out: Percentage damage EPHHL
Protocol: (§2) Seeds of crop and representative weed species were sown in standard soil in pots. After cultivation for 14 days under controlled conditions in a glasshouse (at 22/16° C., day/night; 16 hours light; 65% humidity), the plants were sprayed. The spray solution was prepared by dissolving the technical active ingredient in acetone containing 10.56 wt % Emulsogen EL, 42.22 wt % N-methylpyrrolidone and 2.22 wt % DPG-monoethyl ether to give a 5% stock solution. This was then diluted with water containing 0.2% (v/v) of the adjuvant X-77 to give the desired treatment concentration.
(§3) The test plants were then grown on under controlled conditions in a glasshouse (at 22/16° C., day/night; 16 hours light; 65% humidity) and watered twice daily. After 15 days the test was evaluated (100 =total damage to plant; 0 =no damage to plant).

KCHSC Kochia scoparia = test: Post-emergence crop and weed test (Example 15); conditions: Bassia scoparia, 360 h, after 15 days, read-out: Percentage damage KCHSC
Protocol: as §2, §3

[8] = system: XANST Xanthium strumarium; test: Post-emergence crop and weed test (Example 15); conditions: 360 h, after 15 days, read-out: Percentage damage XANST
Protocol: as §2, §3

IPOHE Ipomoea hederacea = test: Post-emergence crop and weed test (Example 15); conditions: 360 h, after 15 days, read-out: Percentage damage IPOHE
Protocol: as §2, §3

SIDSP Sida spinosa = test: Post-emergence crop and weed test (Example 15); conditions: 360 h, after 15 days, read-out: Percentage damage SIDSP
Protocol: as §2, §3

CHEAL Chenopodium album = test: Post-emergence crop and weed test (Example 15); conditions: 360 h, after 15 days, read-out: Percentage damage CHEAL
Protocol: as §2, §3

[9] = system: AMARE Amaranthus retroflexus; test: Post-emergence crop and weed test (Example 15); conditions: 360 h, after 15 days, read-out: Percentage damage AMARE
Protocol: as §2, §3

[10] = system: POLCO Polygonum convolvulus; test: Post-emergence crop and weed test (Example 15); conditions: Fallopia convolvulus, 360 h, after 15 days, read-out: Percentage damage POLCO
Protocol: as §2, §3

SINAR Sinapis arvensis = test: Post-emergence crop and weed test (Example 15); conditions: Mutarda arvensis, 360 h, after 15 days, read-out: Percentage damage SINAR
Protocol: as §2, §3

VERPE Veronica persica = test: Post-emergence crop and weed test (Example 15); conditions: 360 h, after 15 days, read-out: Percentage damage VERPE
Protocol: as §2, §3

GLXMA Soybean = test: Post-emergence crop and weed test (Example 15); conditions: Glycine max, 360 h, after 15 days, read-out: Percentage damage GLXMA
Protocol: as §2, §3

[11] = system: ABUTH Abutilon theophrasti; test: Post-emergence crop and weed test (Example 15); conditions: 360 h, after 15 days, read-out: Percentage damage ABUTH
Protocol: as §2, §3

Setaria faberi (SETFA) [12] = test: Pre-emergence biological efficacy (Example 13); conditions: Setaria faberi, 312 h; pre-emergence, 1,000 g/ha, after 13 days; read-out: Percentage damage SETFA
Protocol: (§4) Seeds of Alopecurus myosuroides (ALOMY), Setaria faberi (SETFA), Echinochloa crus-galli (ECHCG), Solanum nigrum (SOLNI), Amaranthus retroflexus (AMARE) and Ipomea hederaceae (IPOHE) were sown in standard soil in pots. After cultivation for one day under controlled conditions in a glasshouse (at 24/16° C., day/night; 14 hours light; 65% humidity), the plants were sprayed with an aqueous spray solution derived from the formulation of the technical active ingredient in acetone/water (50:50) solution containing 0.5% Tween 20 (polyoxyethylene sorbitan monolaurate, CAS RN 9005-64-5) to give a final dose of 250 or 1000g/ha of test compound. The test plants were then grown under controlled conditions in the glasshouse (at 24/16° C., day/night; 14 hours light; 65% humidity) and watered twice daily. After 13 days the test was evaluated (100 =total damage to plant; 0 =no damage to plant).

[13] = system: Ipomea hederaceae (IPOHE); test: Pre-emergence biological efficacy (Example 13); conditions: Ipomoea hederacea, 312 h; pre-emergence, 1,000 g/ha, after 13 days; read-out: Percentage damage IPOHE
Protocol: as §4

[14] = system: Alopecurus myosuroides (ALOMY); test: Pre-emergence biological efficacy (Example 13); conditions: Alopecurus myosuroides, 312 h; pre-emergence, 1,000 g/ha, after 13 days; read-out: Percentage damage ALOMY
Protocol: as §4

Solanum nigrum (SOLNI) [15] = test: Pre-emergence biological efficacy (Example 13); conditions: Solanum nigrum, 312 h; pre-emergence, 1,000 g/ha, after 13 days; read-out: Percentage damage SOLNI
Protocol: as §4

[16] = system: Echinochloa crus-galli (ECHCG); test: Pre-emergence biological efficacy (Example 13); conditions: Echinochloa crus-galli, 312 h; pre-emergence, 1,000 g/ha, after 13 days; read-out: Percentage damage ECHCG
Protocol: as §4

[17] = system: Amaranthus retroflexus (AMARE); test: Pre-emergence biological efficacy (Example 13); conditions: Amaranthus retroflexus, 312 h; pre-emergence, 1,000 g/ha, after 13 days; read-out: Percentage damage AMARE
Protocol: as §4

GALAP Galium aparine = test: Post-emergence crop and weed test (Example 15); conditions: 360 h, 125 g/ha, after 15 days, read-out: Percentage damage GALAP
Protocol: as §2, §3

SMILES: C=Cc1c(N)nc(-c2ccc(Cl)nc2)nc1C(=O)OC [Compound 8, 4-amino-2-(6-chloropyridin-3-yl)-5-ethenyl-6-methoxycarbonyl-pyrimidine]
- pest or weed control at 1000 g/ha (Setaria faberi (SETFA) [1]): 0%
- pest or weed control at 1000 g/ha [2]: 50%
- pest or weed control at 1000 g/ha [3]: 0%
- pest or weed control at 1000 g/ha (Solanum nigrum (SOLNI) [4]): 90%
- pest or weed control at 1000 g/ha [5]: 0%
- pest or weed control at 1000 g/ha [6]: 100%
- pest or weed control at 250 g/ha ([7]; 250 g/ha): 40%
- pest or weed control at 250 g/ha (KCHSC Kochia scoparia; 250 g/ha): 60%
- pest or weed control at 250 g/ha ([8]; 250 g/ha): 80%
- pest or weed control at 250 g/ha (IPOHE Ipomoea hederacea; 250 g/ha): 50%
- pest or weed control at 250 g/ha (SIDSP Sida spinosa; 250 g/ha): 20%
- pest or weed control at 250 g/ha (CHEAL Chenopodium album; 250 g/ha): 100%
- pest or weed control at 250 g/ha ([9]; 250 g/ha): 100%
- pest or weed control at 250 g/ha ([10]; 250 g/ha): 60%
- pest or weed control at 250 g/ha (SINAR Sinapis arvensis; 250 g/ha): 70%
- pest or weed control at 250 g/ha (VERPE Veronica persica; 250 g/ha): 80%
- plant injury at 250 g/ha (GLXMA Soybean; 250 g/ha): 10%
- pest or weed control at 250 g/ha ([11]; 250 g/ha): 60%
- pest or weed control at 1000 g/ha (Setaria faberi (SETFA) [12]): 10%
- pest or weed control at 1000 g/ha [13]: 40%
- pest or weed control at 1000 g/ha [14]: 10%
- pest or weed control at 1000 g/ha (Solanum nigrum (SOLNI) [15]): 40%
- pest or weed control at 1000 g/ha [16]: 0%
- pest or weed control at 1000 g/ha [17]: 100%

SMILES: C=Cc1c(NCc2ccco2)nc(C2CC2)nc1C(=O)OC [Ref. Ex. F, 2-Cyclopropyl-5-ethenyl-4-(furan-2-ylmethylamino)-6-methoxycarbonyl-pyrimidine, reference compound]
- pest or weed control at 125 g/ha [7]: 80%
- pest or weed control at 125 g/ha (KCHSC Kochia scoparia): 30%
- pest or weed control at 125 g/ha [8]: 60%
- pest or weed control at 125 g/ha (IPOHE Ipomoea hederacea): 70%
- pest or weed control at 125 g/ha (SIDSP Sida spinosa): 60%
- pest or weed control at 125 g/ha (CHEAL Chenopodium album): 80%
- pest or weed control at 125 g/ha (GALAP Galium aparine): 80%
- pest or weed control at 125 g/ha [9]: 40%
- pest or weed control at 125 g/ha [10]: 60%
- pest or weed control at 125 g/ha (SINAR Sinapis arvensis): 80%
- pest or weed control at 125 g/ha (VERPE Veronica persica): 0%
- plant injury at 125 g/ha (GLXMA Soybean): 80%
- pest or weed control at 125 g/ha [11]: 60%

SMILES: C=Cc1c(N)nc(-c2ccc(Cl)c(F)c2)nc1C(=O)OC [Compound 9, 4-Amino-2-(4-chloro-3-fluorophenyl)-5-ethenyl-6-methoxycarbonyl-pyrimidine]
- pest or weed control at 125 g/ha [7]: 80%
- pest or weed control at 125 g/ha (KCHSC Kochia scoparia): 90%
- pest or weed control at 125 g/ha [8]: 100%
- pest or weed control at 125 g/ha (IPOHE Ipomoea hederacea): 80%
- pest or weed control at 125 g/ha (SIDSP Sida spinosa): 80%
- pest or weed control at 125 g/ha (CHEAL Chenopodium album): 90%
- pest or weed control at 125 g/ha [9]: 100%
- pest or weed control at 125 g/ha [10]: 70%
- pest or weed control at 125 g/ha (SINAR Sinapis arvensis): 80%
- pest or weed control at 125 g/ha (VERPE Veronica persica): 80%
- plant injury at 125 g/ha (GLXMA Soybean): 0%
- pest or weed control at 125 g/ha [11]: 80%

SMILES: C=Cc1c(N)nc(-c2ccc(Cl)cc2F)nc1C(=O)OC [Compound 10, 4-Amino-2-(4-chloro-2-fluorophenyl)-5-ethenyl-6-methoxycarbonyl-pyrimidine]
- pest or weed control at 15 g/ha ([7]; 15 g/ha): 50%
- pest or weed control at 15 g/ha (KCHSC Kochia scoparia; 15 g/ha): 30%
- pest or weed control at 15 g/ha ([8]; 15 g/ha): 70%
- pest or weed control at 15 g/ha (IPOHE Ipomoea hederacea; 15 g/ha): 70%
- pest or weed control at 15 g/ha (SIDSP Sida spinosa; 15 g/ha): 50%
- pest or weed control at 15 g/ha (CHEAL Chenopodium album; 15 g/ha): 80%
- pest or weed control at 15 g/ha ([9]; 15 g/ha): 50%
- pest or weed control at 15 g/ha ([10]; 15 g/ha): 70%
- pest or weed control at 15 g/ha (SINAR Sinapis arvensis; 15 g/ha): 80%
- pest or weed control at 15 g/ha (VERPE Veronica persica; 15 g/ha): 10%
- plant injury at 15 g/ha (GLXMA Soybean; 15 g/ha): 0%
- pest or weed control at 15 g/ha ([11]; 15 g/ha): 90%
